Calls of active or inactive are those of the source. No cut-off for these calls is given here.
Experiments:
[1] = biological target: T1, Amine oxidase [flavin-containing] A (Homo sapiens, UniProt P21397); experiment: Inhibition of recombinant human MAOA expressed in baculovirus infected in BTI cells at 10 uM using kynuramine as substrate after 30 mins by fluorescence based assay relative to control; settings: 0.5 h
T1 sequence (P21397 whole entry): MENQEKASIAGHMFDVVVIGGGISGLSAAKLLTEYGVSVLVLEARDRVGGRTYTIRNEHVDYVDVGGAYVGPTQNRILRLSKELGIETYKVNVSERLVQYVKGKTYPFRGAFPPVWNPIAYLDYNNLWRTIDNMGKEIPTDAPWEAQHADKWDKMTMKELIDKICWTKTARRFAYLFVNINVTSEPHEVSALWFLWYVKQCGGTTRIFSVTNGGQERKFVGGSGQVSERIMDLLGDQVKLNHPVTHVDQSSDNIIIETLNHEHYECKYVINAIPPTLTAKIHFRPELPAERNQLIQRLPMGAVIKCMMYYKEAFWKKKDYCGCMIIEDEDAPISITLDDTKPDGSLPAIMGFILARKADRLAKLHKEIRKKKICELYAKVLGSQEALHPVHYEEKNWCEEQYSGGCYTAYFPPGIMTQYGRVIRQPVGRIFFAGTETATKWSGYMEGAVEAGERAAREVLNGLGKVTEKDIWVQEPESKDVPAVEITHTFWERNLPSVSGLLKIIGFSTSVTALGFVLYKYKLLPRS

[2] = Metal chelating activity assessed as Al3+-compound complex formation at 37.5 uM measured after 2 hrs in presence of 37.5 uM AlCl3 by UV-vis spectrophotometric analysis
[3] = tested on: BV-2; experiment: Anti-neuroinflammatory activity in mouse BV2 cells assessed as inhibition of LPS-induced NO production at 2.5 uM preincubated for 30 mins followed by LPS stimulation measured after 24 hrs by Griess reagent based assay relative to control; assay type: functional
[4] = tested on: BV-2; experiment: Anti-neuroinflammatory activity in mouse BV2 cells assessed as inhibition of LPS-induced NO production at 10 uM preincubated for 30 mins followed by LPS stimulation measured after 24 hrs by Griess reagent based assay relative to control; assay type: functional
[5] = tested on: PC-12; experiment: Neuroprotective activity against H2O2-induced cytotoxicity in rat PC12 cells assessed as cell viability at 1 uM preincubated for 2 hrs followed by H2O2 addition and measured after 24 hrs by MTT assay (reference value: 48.3%); assay type: functional; settings: read-out: Activity
[6] = tested on: PC-12; experiment: Neuroprotective activity against H2O2-induced cytotoxicity in rat PC12 cells assessed as cell viability at 10 uM preincubated for 2 hrs followed by H2O2 addition and measured after 24 hrs by MTT assay (reference value: 48.3%); assay type: functional; settings: read-out: Activity
[7] = Metal chelating activity assessed as Zn2+-compound complex formation at 37.5 uM measured after 2 hrs in presence of 37.5 uM ZnCl2 by UV-vis spectrophotometric analysis
[8] = biological target: Amyloid-beta precursor protein (Homo sapiens) (UniProt P05067); experiment: Inhibition of Cu2+-induced HFIP-pretreated amyloid beta (1 to 42) (unknown origin) aggregation at 25 uM measured after 24 hrs by thioflavin-T fluorescence assay relative to control
[9] = biological target: Amyloid-beta precursor protein (Homo sapiens) (UniProt P05067); experiment: Disaggregation of self-induced amyloid beta (1 to 42) (unknown origin) preformed fibrils at 25 uM measured after 24 hrs by thioflavin-T fluorescence assay relative to control
[10] = Effective permeability of the compound in PBS/EtOH buffer (7:3) at 100 ug/ml after 18 hrs by PAMPA-BBB assay; assay type: ADME; settings: read-out: Peff
[11] = tested on: BV-2; experiment: Cytotoxicity against LPS-induced mouse BV2 cells assessed as reduction in cell viability at 0.5 to 10 uM preincubated for 30 mins followed by LPS stimulation and measured after 24 hrs by MTT assay; assay type: cell-based; settings: bv-2, 24 h
[12] = tested on: BV-2; experiment: Cytotoxicity against mouse BV2 cells assessed as reduction in cell viability at 0.5 to 10 uM measured after 30 mins by MTT assay; assay type: cell-based; settings: bv-2, 0.5 h
[13] = tested on: BV-2; experiment: Anti-neuroinflammatory activity in mouse BV2 cells assessed as inhibition of LPS-induced NO production at 0.5 uM preincubated for 30 mins followed by LPS stimulation measured after 24 hrs by Griess reagent based assay relative to control; assay type: functional
[14] = Metal chelating activity assessed as compound-Cu2+ complex stoichiometry ratio of 1:1 at 37.5 uM in presence of CuCl2 after 15 mins by UV-visible spectrophotometric analysis
[15] = biological target: Amyloid-beta precursor protein (Homo sapiens) (UniProt P05067); experiment: Inhibition of HFIP-pretreated amyloid beta (1 to 42) (unknown origin) self-aggregation at 25 uM after 24 hrs by thioflavin-T fluorescence assay relative to control
[16] = biological target: T2, Amine oxidase [flavin-containing] B (Homo sapiens, UniProt P27338); experiment: Inhibition of recombinant human MAOB expressed in baculovirus infected in BTI cells using kynuramine as substrate after 30 mins by fluorescence based assay; assay type: cell-based
T2 sequence (P27338 whole entry): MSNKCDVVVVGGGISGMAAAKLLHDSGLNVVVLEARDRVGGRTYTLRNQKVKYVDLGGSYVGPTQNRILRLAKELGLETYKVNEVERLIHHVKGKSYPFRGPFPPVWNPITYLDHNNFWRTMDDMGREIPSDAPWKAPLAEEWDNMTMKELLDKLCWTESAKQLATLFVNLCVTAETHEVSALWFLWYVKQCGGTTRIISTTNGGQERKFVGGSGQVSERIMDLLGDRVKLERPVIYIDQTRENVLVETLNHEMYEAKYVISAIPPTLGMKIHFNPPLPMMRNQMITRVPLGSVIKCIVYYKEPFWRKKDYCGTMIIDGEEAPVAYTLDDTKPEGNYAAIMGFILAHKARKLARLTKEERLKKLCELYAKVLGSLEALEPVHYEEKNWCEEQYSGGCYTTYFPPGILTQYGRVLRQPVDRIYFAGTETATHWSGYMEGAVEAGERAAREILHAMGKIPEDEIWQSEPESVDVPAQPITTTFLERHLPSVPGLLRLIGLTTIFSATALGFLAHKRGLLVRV

[17] = tested on: BV-2; experiment: Effect on TNFalpha production in mouse BV2 cells at 10 uM measured after 30 mins by ELISA; assay type: ADME, cell-based; settings: bv-2, 0.5 h
[18] = Metal chelating activity assessed as Cu2+-compound complex formation at 37.5 uM measured after 2 hrs in presence of 37.5 uM CuCl2 by UV-Vis spectrophotometric analysis
[19] = tested on: BV-2; experiment: Anti-neuroinflammatory activity in mouse BV2 cells assessed as inhibition of LPS-induced NO production preincubated for 30 mins followed by LPS stimulation measured after 24 hrs by Griess reagent based assay; assay type: functional, cell-based
[20] = Antioxidant activity assessed as AAPH-induced radical scavenging activity by measuring trolox equivalents for oxygen radical absorbance capacity measured every minute for 90 mins by ORAC-FL assay; assay type: functional
[21] = tested on: BV-2; experiment: Anti-neuroinflammatory activity in mouse BV2 cells assessed as inhibition of LPS-induced TNFalpha production preincubated for 30 mins followed by LPS stimulation measured after 24 hrs by ELISA; assay type: functional, cell-based
[22] = tested on: BV-2; experiment: Anti-neuroinflammatory activity in mouse BV2 cells assessed as inhibition of LPS-induced TNFalpha production at 10 uM preincubated for 30 mins followed by LPS stimulation measured after 24 hrs by ELISA relative to control; assay type: functional
[23] = tested on: BV-2; experiment: Anti-neuroinflammatory activity in mouse BV2 cells assessed as inhibition of LPS-induced TNFalpha production at 2.5 uM preincubated for 30 mins followed by LPS stimulation measured after 24 hrs by ELISA relative to control; assay type: functional
[24] = biological target: T2, Amine oxidase [flavin-containing] B; experiment: Inhibition of recombinant human MAOB expressed in baculovirus infected in BTI cells at 10 uM using kynuramine as substrate after 30 mins by fluorescence based assay relative to control; settings: 0.5 h
[25] = tested on: BV-2; experiment: Effect on nitric oxide production in mouse BV2 cells at 0.5 to 10 uM measured after 30 mins by Griess reagent based […]; assay type: ADME, cell-based; settings: bv-2, 0.5 h
[26] = tested on: BV-2; experiment: Anti-neuroinflammatory activity in mouse BV2 cells assessed as inhibition of LPS-induced TNFalpha production at 0.5 uM preincubated for 30 mins followed by LPS stimulation measured after 24 hrs by ELISA relative to control; assay type: functional
[27] = tested on: PC-12; experiment: Neuroprotective activity against H2O2-induced cytotoxicity in rat PC12 cells assessed as increase in cell viability preincubated for 2 hrs followed by H2O2 addition and measured after 24 hrs by MTT assay; assay type: functional, cell-based
[28] = Metal chelating activity assessed as Fe2+-compound complex formation at 37.5 uM measured after 2 hrs in presence of 37.5 uM FeSO4 by UV-vis spectrophotometric analysis

Amyloid-beta precursor protein (Homo sapiens), sequence (P05067 whole entry): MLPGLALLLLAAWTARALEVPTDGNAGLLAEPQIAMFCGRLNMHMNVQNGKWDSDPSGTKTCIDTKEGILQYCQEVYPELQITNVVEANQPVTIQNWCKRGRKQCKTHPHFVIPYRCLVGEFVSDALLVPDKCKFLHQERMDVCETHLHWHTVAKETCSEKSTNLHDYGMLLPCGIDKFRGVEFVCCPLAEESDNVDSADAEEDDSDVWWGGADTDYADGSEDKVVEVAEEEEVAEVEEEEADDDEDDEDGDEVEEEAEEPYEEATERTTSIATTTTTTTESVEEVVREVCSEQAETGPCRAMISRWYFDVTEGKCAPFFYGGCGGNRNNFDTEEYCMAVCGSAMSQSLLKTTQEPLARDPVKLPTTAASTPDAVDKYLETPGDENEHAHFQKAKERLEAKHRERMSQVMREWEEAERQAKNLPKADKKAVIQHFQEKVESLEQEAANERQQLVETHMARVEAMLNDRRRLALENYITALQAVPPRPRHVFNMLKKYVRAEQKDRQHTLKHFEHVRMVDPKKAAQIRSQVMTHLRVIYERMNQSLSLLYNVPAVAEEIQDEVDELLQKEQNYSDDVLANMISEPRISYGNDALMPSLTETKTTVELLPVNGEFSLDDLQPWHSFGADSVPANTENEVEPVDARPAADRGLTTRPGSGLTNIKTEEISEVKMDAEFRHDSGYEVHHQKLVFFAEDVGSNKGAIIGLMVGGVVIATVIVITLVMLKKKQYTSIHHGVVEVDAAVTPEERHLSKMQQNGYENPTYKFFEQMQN

## COC(=O)C(C)c1ccc(-c2ccc(NCc3cc(N(C)C)ccc3O)cc2)c(F)c1 (stereo not given)
[1]
  inhibition at 10 µM: 26.3%
[2]
  Activity: Active
[3]
  inhibition at 2.5 µM: 46.7%
[4]
  inhibition at 10 µM: 57.2%
[5]
  viability at 1 µM: 70.2%
[6]
  viability at 10 µM: 81.6%
[7]
  Activity: inactive
[8]
  inhibition: 84.3%
[9]
  Activity: 91.1%
[10]
  Papp at 18 h, 100 ug/ml: 5.48 ×10⁻⁶ cm/s
[11]
  Activity: Non-Toxic
[12]
  Activity: Non-Toxic
[13]
  inhibition at 0.5 µM: 32.4%
[14]
  Activity: Active
[15]
  inhibition: 96.3%
[16]
  IC50: 10.3 µM
[17]
  Activity: Non-Toxic
[18]
  Activity: Active
[19]
  inhibition: Dose-dependent effect
[20]
  Activity: 2.44 µMequiv/µM
[21]
  inhibition: Dose-dependent effect
[22]
  inhibition at 10 µM: 76.5%
[23]
  inhibition at 2.5 µM: 53.1%
[24]
  inhibition at 10 µM: 52.4%
[25]
  Activity: Non-Toxic
[26]
  inhibition at 0.5 µM: 35.8%
[27]
  Activity: Dose-dependent effect
[28]
  Activity: inactive

## COC(=O)C(C)c1ccc(-c2ccccc2NCc2cc(N(C)C)ccc2O)c(F)c1 (stereo not given)
[1]
  inhibition at 10 µM: 35.4%
[2]
  Activity: Active
[3]
  inhibition at 2.5 µM: 43.4%
[4]
  inhibition at 10 µM: 52.4%
[5]
  viability at 1 µM: 68.6%
[6]
  viability at 10 µM: 80%
[7]
  Activity: inactive
[8]
  inhibition: 87.3%
[9]
  Activity: 91.1%
[10]
  Papp at 18 h, 100 ug/ml: 4.09 ×10⁻⁶ cm/s
[11]
  Activity: Non-Toxic
[12]
  Activity: Non-Toxic
[13]
  inhibition at 0.5 µM: 26.9%
[14]
  Activity: Active
[15]
  inhibition: 96.1%
[17]
  Activity: Non-Toxic
[18]
  Activity: Active
[19]
  inhibition: Dose-dependent effect
[20]
  Activity: 1.91 µMequiv/µM
[21]
  inhibition: Dose-dependent effect
[22]
  inhibition at 10 µM: 68.1%
[23]
  inhibition at 2.5 µM: 49.1%
[24]
  inhibition at 10 µM: 34.6%
[25]
  Activity: Non-Toxic
[26]
  inhibition at 0.5 µM: 35%
[27]
  Activity: Dose-dependent effect
[28]
  Activity: inactive

From ChEMBL document CHEMBL4627303, “Design, synthesis and evaluation of flurbiprofen-clioquinol hybrids as multitarget-directed ligands against Alzheimer's disease” (Bioorg Med Chem, 2020)
